In PMC6979384, “Characterization of the plant homeodomain (PHD) reader family for their histone tail interactions” (Epigenetics & Chromatin, 2020):

Legend:
Test in all cases: Histone peptide microarray
Assay type in all cases: binding, human
Settings in all cases: sheet "Array Heatmap"
[1] = system: AIRE (PP)
Description: (§1) To more comprehensively define the histone interactions of the 31 PHD readers identified from the domain microarray analyses, we probed each on an alternate microarray platform containing a library of 293 synthetic histone peptides with single or combinatorial PTMs (Additional file 2: Figure S4 and Additional file 3: Table S2).
(§2) The 31 GST-tagged PHD readers identified in the PHD finger domain array were expressed and purified as previously. Histone peptide arrays and peptide pulldown assays were conducted as recently described (specifically, the optimized protocol from Petell et al. for the former).
(§3) Supplementary file 13072_2020_328_MOESM3_ESM.xlsx: Additional file 3: Table S2. […] Excel Tab Peptide List is a compiled list of the entire 293 histone peptide library with amino acid sequence ranges. […] Each number corresponds to the peptide number designated in Peptide List. Excel Tab Average Signals is a compiled set of binding data: chromatin reader at 0.5 μM vs. entire 293 peptide library. Data is presented as the average and standard deviation of 4 replicates. The average signals are colored to indicate signal intensity with green being strong and white being weak/low. […] Key: red= stronger relative binding; blue = weaker relative binding. Excel Tab Array info summary is a table summarizing the domains, sequence coverage, array signal range, and noise for each of the GST-tagged readers assayed on the peptide microarrays.

[2] = system: BAZ2B
Description: as §1, §2, §3

[3] = system: BPTF (PB)
Description: as §1, §2, §3

[4] = system: CHD4 (PPCC)
Description: as §1, §2, §3

[5] = system: CHD5 (PCC)
Description: as §1, §2, §3

[6] = system: CHD5 (PPCC)
Description: as §1, §2, §3

[7] = system: DIDO1
Description: as §1, §2, §3

[8] = system: DPF2 (PPC2W2)
Description: as §1, §2, §3

[9] = system: ING1
Description: as §1, §2, §3

[10] = system: ING2
Description: as §1, §2, §3

[11] = system: ING3
Description: as §1, §2, §3

[12] = system: ING4
Description: as §1, §2, §3

[13] = system: ING5
Description: as §1, §2, §3

[14] = system: KDM4C (TTP)
Description: as §1, §2, §3

[15] = system: KDM5A (1)
Description: as §1, §2, §3

[16] = system: KDM5A (3)
Description: as §1, §2, §3

[17] = system: KDM5B (1)
Description: as §1, §2, §3

[18] = system: KDM5B (3)
Description: as §1, §2, §3

[19] = system: KDM7A
Description: as §1, §2, §3

[20] = system: MLL5
Description: as §1, §2, §3

[21] = system: MORC3 (CW)
Description: as §1, §2, §3

[22] = system: PHF13
Description: as §1, §2, §3

[23] = system: PHF21A
Description: as §1, §2, §3

[24] = system: PHF23
Description: as §1, §2, §3

[25] = system: PHF2
Description: as §1, §2, §3

[26] = system: PHF8
Description: as §1, §2, §3

[27] = system: PHRF1 (RP)
Description: as §1, §2, §3

[28] = system: RAG2
Description: as §1, §2, §3

[29] = system: SP140L
Description: as §1, §2, §3

[30] = system: TAF3
Description: as §1, §2, §3

[31] = system: TRIM66 (PB)
Description: as §1, §2, §3

H2A (1-17): H2A 1-17 (SGRGKQGGKARAKAKTR; UniProt P0C0S8 2-18, looked up, fragment)
Array Heatmap signal, AIRE (PP) ([1]; GST-tagged AIRE (PP), arrays performed twice, total replicate number n = 4): 0.3792 | Array Heatmap signal, BAZ2B ([2]; GST-tagged BAZ2B, arrays performed twice, total replicate number n = 4): 0.3936 | Array Heatmap signal, BPTF (PB) ([3]; GST-tagged BPTF (PB), arrays performed twice, total replicate number n = 4): 0.2947 | Array Heatmap signal, CHD4 (PPCC) ([4]; GST-tagged CHD4 (PPCC), arrays performed twice, total replicate number n = 4): 0.5048 | Array Heatmap signal, CHD5 (PCC) ([5]; GST-tagged CHD5 (PCC), arrays performed twice, total replicate number n = 4): 0.7396 | Array Heatmap signal, CHD5 (PPCC) ([6]; GST-tagged CHD5 (PPCC), arrays performed twice, total replicate number n = 4): 0.4702 | Array Heatmap signal, DIDO1 ([7]; GST-tagged DIDO1, arrays performed twice, total replicate number n = 4): 0.6067 | Array Heatmap signal, DPF2 (PPC2W2) ([8]; GST-tagged DPF2 (PPC2W2), arrays performed twice, total replicate number n = 4): 0.6154 | Array Heatmap signal, ING1 ([9]; GST-tagged ING1, arrays performed twice, total replicate number n = 4): 0.4879 | Array Heatmap signal, ING2 ([10]; GST-tagged ING2, arrays performed twice, total replicate number n = 4): 0.6045 | Array Heatmap signal, ING3 ([11]; GST-tagged ING3, arrays performed twice, total replicate number n = 4): 0.4033 | Array Heatmap signal, ING4 ([12]; GST-tagged ING4, arrays performed twice, total replicate number n = 4): 0.3938 | Array Heatmap signal, ING5 ([13]; GST-tagged ING5, arrays performed twice, total replicate number n = 4): 0.2875 | Array Heatmap signal, KDM4C (TTP) ([14]; GST-tagged KDM4C (TTP), arrays performed twice, total replicate number n = 4): 0.4226 | Array Heatmap signal, KDM5A (1) ([15]; GST-tagged KDM5A (1), arrays performed twice, total replicate number n = 4): 0.4209 | Array Heatmap signal, KDM5A (3) ([16]; GST-tagged KDM5A (3), arrays performed twice, total replicate number n = 4): 0.3954 | Array Heatmap signal, KDM5B (1) ([17]; GST-tagged KDM5B (1), arrays performed twice, total replicate number n = 4): 0.663 | Array Heatmap signal, KDM5B (3) ([18]; GST-tagged KDM5B (3), arrays performed twice, total replicate number n = 4): 0.4194 | Array Heatmap signal, KDM7A ([19]; GST-tagged KDM7A, arrays performed twice, total replicate number n = 4): 0.3435 | Array Heatmap signal, MLL5 ([20]; GST-tagged MLL5, arrays performed twice, total replicate number n = 4): 0.5078 | Array Heatmap signal, MORC3 (CW) ([21]; GST-tagged MORC3 (CW), arrays performed twice, total replicate number n = 4): 0.3444 | Array Heatmap signal, PHF13 ([22]; GST-tagged PHF13, arrays performed twice, total replicate number n = 4): 0.527 | Array Heatmap signal, PHF21A ([23]; GST-tagged PHF21A, arrays performed twice, total replicate number n = 4): 0.4214 | Array Heatmap signal, PHF23 ([24]; GST-tagged PHF23, arrays performed twice, total replicate number n = 4): 0.4782 | Array Heatmap signal, PHF2 ([25]; GST-tagged PHF2, arrays performed twice, total replicate number n = 4): 0.4566 | Array Heatmap signal, PHF8 ([26]; GST-tagged PHF8, arrays performed twice, total replicate number n = 4): 0.3118 | Array Heatmap signal, PHRF1 (RP) ([27]; GST-tagged PHRF1 (RP), arrays performed twice, total replicate number n = 4): 0.4275 | Array Heatmap signal, RAG2 ([28]; GST-tagged RAG2, arrays performed twice, total replicate number n = 4): 0.2183 | Array Heatmap signal, SP140L ([29]; GST-tagged SP140L, arrays performed twice, total replicate number n = 4): 0.3296 | Array Heatmap signal, TAF3 ([30]; GST-tagged TAF3, arrays performed twice, total replicate number n = 4): 0.223 | Array Heatmap signal, TRIM66 (PB) ([31]; GST-tagged TRIM66 (PB), arrays performed twice, total replicate number n = 4): 0.5087

H2A (10-25): H2A 10-25 (ARAKAKTRSSRAGLQF; UniProt P0C0S8 11-26, looked up, fragment)
Array Heatmap value (peptide array signal) ([1]; AIRE (PP), each array performed twice, total n = 4): 0.4997 | Array Heatmap value (peptide array signal) ([2]; BAZ2B, each array performed twice, total n = 4): 0.4876 | Array Heatmap value (peptide array signal) ([3]; BPTF (PB), each array performed twice, total n = 4): 0.3546 | Array Heatmap value (peptide array signal) ([4]; CHD4 (PPCC), each array performed twice, total n = 4): 0.556 | Array Heatmap value (peptide array signal) ([5]; CHD5 (PCC), each array performed twice, total n = 4): 0.8105 | Array Heatmap value (peptide array signal) ([6]; CHD5 (PPCC), each array performed twice, total n = 4): 0.5571 | Array Heatmap value (peptide array signal) ([7]; DIDO1, each array performed twice, total n = 4): 0.6569 | Array Heatmap value (peptide array signal) ([8]; DPF2 (PPC2W2), each array performed twice, total n = 4): 0.6893 | Array Heatmap value (peptide array signal) ([9]; ING1, each array performed twice, total n = 4): 0.5431 | Array Heatmap value (peptide array signal) ([10]; ING2, each array performed twice, total n = 4): 0.647 | Array Heatmap value (peptide array signal) ([11]; ING3, each array performed twice, total n = 4): 0.4796 | Array Heatmap value (peptide array signal) ([12]; ING4, each array performed twice, total n = 4): 0.4661 | Array Heatmap value (peptide array signal) ([13]; ING5, each array performed twice, total n = 4): 0.3701 | Array Heatmap value (peptide array signal) ([14]; KDM4C (TTP), each array performed twice, total n = 4): 0.5121 | Array Heatmap value (peptide array signal) ([15]; KDM5A (1), each array performed twice, total n = 4): 0.4831 | Array Heatmap value (peptide array signal) ([16]; KDM5A (3), each array performed twice, total n = 4): 0.4414 | Array Heatmap value (peptide array signal) ([17]; KDM5B (1), each array performed twice, total n = 4): 0.668 | Array Heatmap value (peptide array signal) ([18]; KDM5B (3), each array performed twice, total n = 4): 0.4449 | Array Heatmap value (peptide array signal) ([19]; KDM7A, each array performed twice, total n = 4): 0.3832 | Array Heatmap value (peptide array signal) ([20]; MLL5, each array performed twice, total n = 4): 0.5534 | Array Heatmap value (peptide array signal) ([21]; MORC3 (CW), each array performed twice, total n = 4): 0.3714 | Array Heatmap value (peptide array signal) ([22]; PHF13, each array performed twice, total n = 4): 0.6145 | Array Heatmap value (peptide array signal) ([23]; PHF21A, each array performed twice, total n = 4): 0.4834 | Array Heatmap value (peptide array signal) ([24]; PHF23, each array performed twice, total n = 4): 0.5294 | Array Heatmap value (peptide array signal) ([25]; PHF2, each array performed twice, total n = 4): 0.4378 | Array Heatmap value (peptide array signal) ([26]; PHF8, each array performed twice, total n = 4): 0.3624 | Array Heatmap value (peptide array signal) ([27]; PHRF1 (RP), each array performed twice, total n = 4): 0.4431 | Array Heatmap value (peptide array signal) ([28]; RAG2, each array performed twice, total n = 4): 0.2471 | Array Heatmap value (peptide array signal) ([29]; SP140L, each array performed twice, total n = 4): 0.3704 | Array Heatmap value (peptide array signal) ([30]; TAF3, each array performed twice, total n = 4): 0.2598 | Array Heatmap value (peptide array signal) ([31]; TRIM66 (PB), each array performed twice, total n = 4): 0.5591
